Data taken from the supplement of paper PMC8882468.

Key:
Test in all cases: CTG-3D luminescence at 96 h relative to day-0 seeding control (ratio to day 0); higher = more growth / less cytotoxicity
[1] = system: HCI-001 (organoid from a triple-negative breast cancer xenograft)
Protocol: (§1)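 PDxO 3D drug screen (set 2), 8-point dose, 96 h; CTG-3D luminescence normalised to day-0 seeding control (mean of 4 wells each).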

[2] = system: HCI-019 (organoid from a triple-negative breast cancer xenograft)
Protocol: as §1

[3] = system: HCI-008 (organoid from a HER2-enriched breast cancer xenograft)
Protocol: as §1

[4] = system: HCI-002 (organoid from a triple-negative breast cancer xenograft)
Protocol: as §1

CC/C(=C(\c1ccc(O)cc1)c1ccc(OCCN(C)C)cc1)c1ccccc1 [4-hydroxytamoxifen]
CTG-3D luminescence at 96 h ([1]; 12.5 pM, days in culture: 365): 2.24
CTG-3D luminescence at 96 h ([1]; 12.5 pM, days in culture: 397): 1.66
CTG-3D luminescence at 96 h ([1]; 12.5 pM, days in culture: 401): 1.75
CTG-3D luminescence at 96 h ([1]; 0.00025 µM, days in culture: 365): 2.14
CTG-3D luminescence at 96 h ([1]; 0.00025 µM, days in culture: 397): 1.84
CTG-3D luminescence at 96 h ([1]; 0.00025 µM, days in culture: 401): 1.39
CTG-3D luminescence at 96 h ([1]; 0.005 µM, days in culture: 365): 2.59
CTG-3D luminescence at 96 h ([1]; 0.005 µM, days in culture: 397): 2.19
CTG-3D luminescence at 96 h ([1]; 0.005 µM, days in culture: 401): 1.52
CTG-3D luminescence at 96 h ([1]; 0.1 µM, days in culture: 365): 3.06
CTG-3D luminescence at 96 h ([1]; 0.1 µM, days in culture: 397): 2.62
CTG-3D luminescence at 96 h ([1]; 0.1 µM, days in culture: 401): 1.38
CTG-3D luminescence at 96 h ([1]; 1 µM, days in culture: 365): 2.55
CTG-3D luminescence at 96 h ([1]; 1 µM, days in culture: 397): 1.93
CTG-3D luminescence at 96 h ([1]; 1 µM, days in culture: 401): 1.26
CTG-3D luminescence at 96 h ([1]; 10 µM, days in culture: 365): 1.86
CTG-3D luminescence at 96 h ([1]; 10 µM, days in culture: 397): 1.21
CTG-3D luminescence at 96 h ([1]; 10 µM, days in culture: 401): 1.52
CTG-3D luminescence at 96 h ([1]; 100 µM, days in culture: 365): 0.0145
CTG-3D luminescence at 96 h ([1]; 100 µM, days in culture: 397): 0.00832
CTG-3D luminescence at 96 h ([1]; 100 µM, days in culture: 401): 0.00247
CTG-3D luminescence at 96 h ([1]; 625 fM, days in culture: 365): 1.46
CTG-3D luminescence at 96 h ([1]; 625 fM, days in culture: 397): 1.25
CTG-3D luminescence at 96 h ([1]; 625 fM, days in culture: 401): 1.47
CTG-3D luminescence at 96 h ([2]; 12.5 pM, days in culture: 173): 1.97
CTG-3D luminescence at 96 h ([2]; 12.5 pM, days in culture: 194): 1.24
CTG-3D luminescence at 96 h ([2]; 12.5 pM, days in culture: 215): 2.34
CTG-3D luminescence at 96 h ([2]; 0.00025 µM, days in culture: 173): 1.2
CTG-3D luminescence at 96 h ([2]; 0.00025 µM, days in culture: 194): 0.815
CTG-3D luminescence at 96 h ([2]; 0.00025 µM, days in culture: 215): 1.56
CTG-3D luminescence at 96 h ([2]; 0.005 µM, days in culture: 173): 1.04
CTG-3D luminescence at 96 h ([2]; 0.005 µM, days in culture: 194): 2.23
CTG-3D luminescence at 96 h ([2]; 0.005 µM, days in culture: 215): 1.23
CTG-3D luminescence at 96 h ([2]; 0.1 µM, days in culture: 173): 1.81
CTG-3D luminescence at 96 h ([2]; 0.1 µM, days in culture: 194): 0.96
CTG-3D luminescence at 96 h ([2]; 0.1 µM, days in culture: 215): 1.28
CTG-3D luminescence at 96 h ([2]; 1 µM, days in culture: 173): 1.85
CTG-3D luminescence at 96 h ([2]; 1 µM, days in culture: 194): 2.13
CTG-3D luminescence at 96 h ([2]; 1 µM, days in culture: 215): 1.14
CTG-3D luminescence at 96 h ([2]; 10 µM, days in culture: 173): 0.914
CTG-3D luminescence at 96 h ([2]; 10 µM, days in culture: 194): 0.944
CTG-3D luminescence at 96 h ([2]; 10 µM, days in culture: 215): 0.473
CTG-3D luminescence at 96 h ([2]; 100 µM, days in culture: 173): 0.0117
CTG-3D luminescence at 96 h ([2]; 100 µM, days in culture: 194): 0.00421
CTG-3D luminescence at 96 h ([2]; 100 µM, days in culture: 215): 0.00476
CTG-3D luminescence at 96 h ([2]; 625 fM, days in culture: 173): 1.34
CTG-3D luminescence at 96 h ([2]; 625 fM, days in culture: 194): 2.45
CTG-3D luminescence at 96 h ([2]; 625 fM, days in culture: 215): 1.5
CTG-3D luminescence at 96 h ([3]; 12.5 pM, days in culture: 325): 1.16
CTG-3D luminescence at 96 h ([3]; 12.5 pM, days in culture: 340): 1.38
CTG-3D luminescence at 96 h ([3]; 12.5 pM, days in culture: 354): 1.2
CTG-3D luminescence at 96 h ([3]; 12.5 pM, days in culture: 382): 1.86
CTG-3D luminescence at 96 h ([3]; 0.00025 µM, days in culture: 325): 3.13
CTG-3D luminescence at 96 h ([3]; 0.00025 µM, days in culture: 340): 1.51
CTG-3D luminescence at 96 h ([3]; 0.00025 µM, days in culture: 354): 1.03
CTG-3D luminescence at 96 h ([3]; 0.00025 µM, days in culture: 382): 1.74
CTG-3D luminescence at 96 h ([3]; 0.005 µM, days in culture: 325): 1.6
CTG-3D luminescence at 96 h ([3]; 0.005 µM, days in culture: 340): 1.18
CTG-3D luminescence at 96 h ([3]; 0.005 µM, days in culture: 354): 2.12
CTG-3D luminescence at 96 h ([3]; 0.005 µM, days in culture: 382): 1.28
CTG-3D luminescence at 96 h ([3]; 0.1 µM, days in culture: 325): 3.49
CTG-3D luminescence at 96 h ([3]; 0.1 µM, days in culture: 340): 1.09
CTG-3D luminescence at 96 h ([3]; 0.1 µM, days in culture: 354): 1.34
CTG-3D luminescence at 96 h ([3]; 0.1 µM, days in culture: 382): 1.63
CTG-3D luminescence at 96 h ([3]; 1 µM, days in culture: 325): 3.48
CTG-3D luminescence at 96 h ([3]; 1 µM, days in culture: 340): 1.46
CTG-3D luminescence at 96 h ([3]; 1 µM, days in culture: 354): 1.26
CTG-3D luminescence at 96 h ([3]; 1 µM, days in culture: 382): 0.792
CTG-3D luminescence at 96 h ([3]; 10 µM, days in culture: 325): 2.12
CTG-3D luminescence at 96 h ([3]; 10 µM, days in culture: 354): 1.3
CTG-3D luminescence at 96 h ([3]; 10 µM, days in culture: 382): 1.56
CTG-3D luminescence at 96 h ([3]; 100 µM, days in culture: 325): 0.0259
CTG-3D luminescence at 96 h ([3]; 100 µM, days in culture: 340): 0.00621
CTG-3D luminescence at 96 h ([3]; 100 µM, days in culture: 354): 0.00452
CTG-3D luminescence at 96 h ([3]; 100 µM, days in culture: 382): 0.0061
CTG-3D luminescence at 96 h ([3]; 625 fM, days in culture: 325): 1.52
CTG-3D luminescence at 96 h ([3]; 625 fM, days in culture: 340): 1.32
CTG-3D luminescence at 96 h ([3]; 625 fM, days in culture: 354): 0.999
CTG-3D luminescence at 96 h ([3]; 625 fM, days in culture: 382): 1.74
CTG-3D luminescence at 96 h ([4]; 12.5 pM, days in culture: 127): 2.42
CTG-3D luminescence at 96 h ([4]; 12.5 pM, days in culture: 155): 4.99
CTG-3D luminescence at 96 h ([4]; 12.5 pM, days in culture: 168): 3.07
CTG-3D luminescence at 96 h ([4]; 0.00025 µM, days in culture: 127): 2.73
CTG-3D luminescence at 96 h ([4]; 0.00025 µM, days in culture: 155): 5.16
CTG-3D luminescence at 96 h ([4]; 0.00025 µM, days in culture: 168): 2.97
CTG-3D luminescence at 96 h ([4]; 0.005 µM, days in culture: 127): 2.8
CTG-3D luminescence at 96 h ([4]; 0.005 µM, days in culture: 155): 5.23
CTG-3D luminescence at 96 h ([4]; 0.005 µM, days in culture: 168): 4.33
CTG-3D luminescence at 96 h ([4]; 0.1 µM, days in culture: 127): 2.99
CTG-3D luminescence at 96 h ([4]; 0.1 µM, days in culture: 155): 5.86
CTG-3D luminescence at 96 h ([4]; 0.1 µM, days in culture: 168): 2.96
CTG-3D luminescence at 96 h ([4]; 1 µM, days in culture: 127): 2.6
CTG-3D luminescence at 96 h ([4]; 1 µM, days in culture: 155): 4.71
CTG-3D luminescence at 96 h ([4]; 1 µM, days in culture: 168): 3.6
CTG-3D luminescence at 96 h ([4]; 10 µM, days in culture: 127): 2.18
CTG-3D luminescence at 96 h ([4]; 10 µM, days in culture: 155): 4.14
CTG-3D luminescence at 96 h ([4]; 10 µM, days in culture: 168): 0.901
CTG-3D luminescence at 96 h ([4]; 100 µM, days in culture: 127): 0.0155
CTG-3D luminescence at 96 h ([4]; 100 µM, days in culture: 155): 0.0228
CTG-3D luminescence at 96 h ([4]; 100 µM, days in culture: 168): 0.00411
CTG-3D luminescence at 96 h ([4]; 625 fM, days in culture: 127): 2.75
CTG-3D luminescence at 96 h ([4]; 625 fM, days in culture: 155): 4.09
CTG-3D luminescence at 96 h ([4]; 625 fM, days in culture: 168): 4.11
